The values below are quoted from earlier work in patent publication US20050202550A1, “Crystal structure of 3', 5'-cyclic nucleotide phosphodiesterase (PDE10A) and uses thereof” (Pfizer Inc, priority 2004, published 2005).

SMILES strings stand for the structures.

This data set deals with T1, PDE10 (Mus musculus, UniProt Q8CA95).
T1 sequence (Q8CA95 1-779 isoform Q8CA95-2): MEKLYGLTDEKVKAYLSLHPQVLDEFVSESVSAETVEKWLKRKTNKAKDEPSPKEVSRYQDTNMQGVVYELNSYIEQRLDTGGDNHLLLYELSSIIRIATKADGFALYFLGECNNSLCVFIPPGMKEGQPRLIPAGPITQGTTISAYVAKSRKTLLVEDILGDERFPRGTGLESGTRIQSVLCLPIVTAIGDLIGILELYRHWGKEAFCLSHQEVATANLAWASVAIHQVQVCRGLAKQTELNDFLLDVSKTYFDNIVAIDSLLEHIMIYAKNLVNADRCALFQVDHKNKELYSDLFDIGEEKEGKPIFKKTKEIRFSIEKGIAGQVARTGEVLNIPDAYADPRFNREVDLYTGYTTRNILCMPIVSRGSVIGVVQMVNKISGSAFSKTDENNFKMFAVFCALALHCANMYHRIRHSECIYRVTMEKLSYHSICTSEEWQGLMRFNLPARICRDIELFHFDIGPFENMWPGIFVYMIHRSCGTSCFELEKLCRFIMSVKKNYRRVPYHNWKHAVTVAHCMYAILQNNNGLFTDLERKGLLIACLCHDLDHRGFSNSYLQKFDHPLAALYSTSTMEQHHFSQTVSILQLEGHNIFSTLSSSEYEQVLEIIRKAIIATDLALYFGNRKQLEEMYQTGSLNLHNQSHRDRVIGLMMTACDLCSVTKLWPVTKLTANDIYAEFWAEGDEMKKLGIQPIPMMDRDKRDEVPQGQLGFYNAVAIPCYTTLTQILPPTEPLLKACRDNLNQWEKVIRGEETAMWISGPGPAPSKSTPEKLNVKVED
Particulars: mouse PDE10A1.

As to `Nc1nc2c(ncn2[C@@H]2O[C@@H]3COP(=O)(O)O[C@H]3[C@H]2O)c(=O)[nH]1` [cGMP], the “Vmax for cGMP over cAMP” value (ratio of Vmax cGMP to cAMP) is recorded as “approximately 5 fold”. The Km (substrate, read-out: Km (affinity of the PDE10 for substrate)) is 3 µM.

As a reminder, the Km is the substrate concentration at which the rate is half of its maximum.
